biological target: T1, human PTH1 receptor (Homo sapiens, UniProt Q03431); test: In vitro cAMP signal activity in HKRK-B7 cells (LLC-PK1 cells overexpressing the human PTH1 receptor); type: cell-based; conditions: HKRK-B7 cells; compound at 1×10^−3 M; cAMP produced as percentage of that produced by hPTH(1-34) at 100 nM
T1 sequence (Q03431 27-593): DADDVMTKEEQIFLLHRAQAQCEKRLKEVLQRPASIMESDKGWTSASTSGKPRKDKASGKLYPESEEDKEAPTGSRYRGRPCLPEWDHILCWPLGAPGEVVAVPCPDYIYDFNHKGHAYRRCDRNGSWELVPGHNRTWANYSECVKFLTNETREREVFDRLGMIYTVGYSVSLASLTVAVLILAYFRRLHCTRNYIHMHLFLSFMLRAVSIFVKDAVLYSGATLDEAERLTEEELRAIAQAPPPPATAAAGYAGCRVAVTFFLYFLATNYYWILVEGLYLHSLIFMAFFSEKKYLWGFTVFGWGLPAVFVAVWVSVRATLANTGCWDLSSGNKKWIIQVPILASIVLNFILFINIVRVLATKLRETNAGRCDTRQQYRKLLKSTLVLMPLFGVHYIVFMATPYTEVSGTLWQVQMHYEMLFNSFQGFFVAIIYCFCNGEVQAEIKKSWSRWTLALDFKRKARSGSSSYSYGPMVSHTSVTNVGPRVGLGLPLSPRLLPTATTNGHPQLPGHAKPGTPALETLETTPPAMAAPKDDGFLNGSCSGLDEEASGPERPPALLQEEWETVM

| Compound | cAMP production activity (%) |
| --- | --- |
| O=C1NC(C2CCC(CCC(F)(F)F)CC2)=NC12CCN(S(=O)(=O)/C=C/c1cccc3c1ccn3C[C@@H](O)CO)CC2 (stereo partly drawn) [Compound 541, 8-{(E)-2-[1-((R)-2,3-dihydroxy-propyl)-1H-indol-4-yl]-ethenesulfonyl}-2-[4-(3,3,3-trifluoro-propyl)-cyclohexyl]-1,3,8-triaza-spiro[4.5]dec-1-en-4-one] | 79 |
| COCCN(C(C)=O)c1ccc(/C=C/S(=O)(=O)N2CCC3(CC2)N=C(C2CCC(CCC(F)(F)F)CC2)NC3=O)c(C)c1 (stereo not drawn) [Compound 542, N-(2-methoxy-ethyl)-N-[3-methyl-4-((E)-2-{4-oxo-2-[4-(3,3,3-trifluoro-propyl)-cyclohexyl]-1,3,8-triaza-spiro[4.5]dec-1-ene-8-sulfonyl}-vinyl)-phenyl]-acetamide] | 66 |
| COCCN(C(C)=O)c1cc(C)c(/C=C/S(=O)(=O)N2CCC3(CC2)N=C(C2CCC(CCC(F)(F)F)CC2)NC3=O)c(C)c1 (stereo not drawn) [Compound 543, N-[3,5-dimethyl-4-((E)-2-{4-oxo-2-[4-(3,3,3-trifluoro-propyl)-cyclohexyl]-1,3,8-triaza-spiro[4.5]dec-1-ene-8-sulfonyl}-vinyl)-phenyl]-N-(2-methoxy-ethyl)-acetamide] | 76 |
| CC(=O)N(CCOCCO)c1ccc(/C=C/S(=O)(=O)N2CCC3(CC2)N=C(C2CCC(CCC(F)(F)F)CC2)NC3=O)c(C)c1 (stereo not drawn) [Compound 544, N-[2-(2-hydroxy-ethoxy)-ethyl]-N-[3-methyl-4-((E)-2-{4-oxo-2-[4-(3,3,3-trifluoro-propyl)-cyclohexyl]-1,3,8-triaza-spiro[4.5]dec-1-ene-8-sulfonyl}-vinyl)-phenyl]-acetamide] | 80 |
| CC(=O)N(CCOCCF)c1ccc(/C=C/S(=O)(=O)N2CCC3(CC2)N=C(C2CCC(CCC(F)(F)F)CC2)NC3=O)c(C)c1 (stereo not drawn) [Compound 545, N-[2-(2-fluoro-ethoxy)-ethyl]-N-[3-methyl-4-((E)-2-{4-oxo-2-[4-(3,3,3-trifluoro-propyl)-cyclohexyl]-1,3,8-triaza-spiro[4.5]dec-1-ene-8-sulfonyl}-vinyl)-phenyl]-acetamide] | 86 |
| CC(=O)N(C)c1cc(C)c(/C=C/S(=O)(=O)N2CCC3(CC2)N=C(C2CCC(CCC(F)(F)F)CC2)NC3=O)c(C)c1 (stereo not drawn) [Compound 546, N-[3,5-dimethyl-4-((E)-2-{4-oxo-2-[4-(3,3,3-trifluoro-propyl)-cyclohexyl]-1,3,8-triaza-spiro[4.5]dec-1-ene-8-sulfonyl}-vinyl)-phenyl]-N-methyl-acetamide] | 75 |
| Cc1cc(C(=O)O)cc(C)c1/C=C/S(=O)(=O)N1CCC2(CC1)N=C(C1CCC(CCC(F)(F)F)CC1)NC2=O (stereo not drawn) [Compound 547, 3,5-dimethyl-4-((E)-2-{4-oxo-2-[4-(3,3,3-trifluoro-propyl)-cyclohexyl]-1,3,8-triaza-spiro[4.5]dec-1-ene-8-sulfonyl}-vinyl)-benzoic acid] | 52 |
| Cc1cc(N2C(=O)CN(C)C2=O)cc(C)c1/C=C/S(=O)(=O)N1CCC2(CC1)N=C(C1CCC(CCC(F)(F)F)CC1)NC2=O (stereo not drawn) [Compound 548, 3-[3,5-dimethyl-4-((E)-2-{4-oxo-2-[4-(3,3,3-trifluoro-propyl)-cyclohexyl]-1,3,8-triaza-spiro[4.5]dec-1-ene-8-sulfonyl}-vinyl)-phenyl]-1-methyl-imidazolidine-2,4-dione] | 88 |
| Cc1cc(C(=O)N2CCN(CCF)CC2)cc(C)c1/C=C/S(=O)(=O)N1CCC2(CC1)N=C(C1CCC(CCC(F)(F)F)CC1)NC2=O (stereo not drawn) [Compound 549, 8-((E)-2-{4-[4-(2-fluoro-ethyl)-piperazine-1-carbonyl]-2,6-dimethyl-phenyl}-ethenesulfonyl)-2-[4-(3,3,3-trifluoro-propyl)-cyclohexyl]-1,3,8-triaza-spiro[4.5]dec-1-en-4-one] | 86 |
| Cc1cc(N2CCOCC2=O)cc(C)c1/C=C/S(=O)(=O)N1CCC2(CC1)N=C(C1CCC(CCC(F)(F)F)CC1)NC2=O (stereo not drawn) [Compound 550, 8-{(E)-2-[2,6-dimethyl-4-(3-oxo-morpholin-4-yl)-phenyl]-ethenesulfonyl}-2-[4-(3,3,3-trifluoro-propyl)-cyclohexyl]-1,3,8-triaza-spiro[4.5]dec-1-en-4-one] | 124 |
| CC(=O)N(CCOCCF)c1cc(C)c(/C=C/S(=O)(=O)N2CCC3(CC2)N=C(C2CCC(CCC(F)(F)F)CC2)NC3=O)c(C)c1 (stereo not drawn) [Compound 551, N-[3,5-dimethyl-4-((E)-2-{4-oxo-2-[4-(3,3,3-trifluoro-propyl)-cyclohexyl]-1,3,8-triaza-spiro[4.5]dec-1-ene-8-sulfonyl}-vinyl)-phenyl]-N-[2-(2-fluoro-ethoxy)-ethyl]-acetamide] | 92 |
| CC(=O)NNC(=O)c1cc(C)c(/C=C/S(=O)(=O)N2CCC3(CC2)N=C(C2CCC(CCC(F)(F)F)CC2)NC3=O)c(C)c1 (stereo not drawn) [Compound 552, 3,5-dimethyl-4-((E)-2-{4-oxo-2-[4-(3,3,3-trifluoro-propyl)-cyclohexyl]-1,3,8-triaza-spiro[4.5]dec-1-ene-8-sulfonyl}-vinyl)-benzoic acid N′-acetyl-hydrazide] | 64 |
| Cc1cc(CO)cc(C)c1/C=C/S(=O)(=O)N1CCC2(CC1)N=C(C1CCC(CCC(F)(F)F)CC1)NC2=O (stereo not drawn) [Compound 553, 8-[(E)-2-(4-hydroxymethyl-2,6-dimethyl-phenyl)-ethenesulfonyl]-2-[4-(3,3,3-trifluoro-propyl)-cyclohexyl]-1,3,8-triaza-spiro[4.5]dec-1-en-4-one] | 80 |
| Cc1cc(CN2C(=O)CNC2=O)cc(C)c1/C=C/S(=O)(=O)N1CCC2(CC1)N=C(C1CCC(CCC(F)(F)F)CC1)NC2=O (stereo not drawn) [Compound 554, 3-[3,5-dimethyl-4-((E)-2-{4-oxo-2-[4-(3,3,3-trifluoro-propyl)-cyclohexyl]-1,3,8-triaza-spiro[4.5]dec-1-ene-8-sulfonyl}-vinyl)-benzyl]-imidazolidine-2,4-dione] | 82 |
| Cc1cc(CN2C(=O)NC(C)(C)C2=O)cc(C)c1/C=C/S(=O)(=O)N1CCC2(CC1)N=C(C1CCC(CCC(F)(F)F)CC1)NC2=O (stereo not drawn) [Compound 555, 3-[3,5-dimethyl-4-((E)-2-{4-oxo-2-[4-(3,3,3-trifluoro-propyl)-cyclohexyl]-1,3,8-triaza-spiro[4.5]dec-1-ene-8-sulfonyl}-vinyl)-benzyl]-5,5-dimethyl-imidazolidine-2,4-dione] | 40 |
| Cc1cc(CN2CCCC2=O)cc(C)c1/C=C/S(=O)(=O)N1CCC2(CC1)N=C(C1CCC(CCC(F)(F)F)CC1)NC2=O (stereo not drawn) [Compound 556, 8-{(E)-2-[2,6-dimethyl-4-(2-oxo-pyrrolidin-1-ylmethyl)-phenyl]-ethenesulfonyl}-2-[4-(3,3,3-trifluoro-propyl)-cyclohexyl]-1,3,8-triaza-spiro[4.5]dec-1-en-4-one] | 19 |
| Cc1cc(CN2C(=O)CCC2=O)cc(C)c1/C=C/S(=O)(=O)N1CCC2(CC1)N=C(C1CCC(CCC(F)(F)F)CC1)NC2=O (stereo not drawn) [Compound 557, 1-[3,5-dimethyl-4-((E)-2-{4-oxo-2-[4-(3,3,3-trifluoro-propyl)-cyclohexyl]-1,3,8-triaza-spiro[4.5]dec-1-ene-8-sulfonyl}-vinyl)-benzyl]-pyrrolidine-2,5-dione] | 50 |
| CC(=O)NCc1cc(C)c(/C=C/S(=O)(=O)N2CCC3(CC2)N=C(C2CCC(CCC(F)(F)F)CC2)NC3=O)c(C)c1 (stereo not drawn) [Compound 558, N-[3,5-dimethyl-4-((E)-2-{4-oxo-2-[4-(3,3,3-trifluoro-propyl)-cyclohexyl]-1,3,8-triaza-spiro[4.5]dec-1-ene-8-sulfonyl}-vinyl)-benzyl]-acetamide] | 74 |
| CC(=O)N(C)Cc1cc(C)c(/C=C/S(=O)(=O)N2CCC3(CC2)N=C(C2CCC(CCC(F)(F)F)CC2)NC3=O)c(C)c1 (stereo not drawn) [Compound 559, N-[3,5-dimethyl-4-((E)-2-{4-oxo-2-[4-(3,3,3-trifluoro-propyl)-cyclohexyl]-1,3,8-triaza-spiro[4.5]dec-1-ene-8-sulfonyl}-vinyl)-benzyl]-N-methyl-acetamide] | 72 |
| CCCCC1CCC(C2=NC3(CCN(S(=O)(=O)/C=C/c4ccc(N5C(=O)CNC5=O)cc4C)CC3)C(=O)N2)CC1 (stereo not drawn) [Compound 560, 3-(4-{(E)-2-[2-(4-Butyl-cyclohexyl)-4-oxo-1,3,8-triaza-spiro[4.5]dec-1-ene-8-sulfonyl]-vinyl}-3-methyl-phenyl)-imidazolidine-2,4-dione] | 66 |
| CCCCC1CCC(C2=NC3(CCN(S(=O)(=O)/C=C/c4c(C)cc(N(CCOCCOC)C(C)=O)cc4C)CC3)C(=O)N2)CC1 (stereo not drawn) [Compound 561, N-(4-{(E)-2-[2-(4-butyl-cyclohexyl)-4-oxo-1,3,8-triaza-spiro[4.5]dec-1-ene-8-sulfonyl]-vinyl}-3,5-dimethyl-phenyl)-N-[2-(2-methoxy-ethoxy)-ethyl]-acetamide] | 52 |
